Patent US6962924B2, “Salt and polymorphs of desloratadine hemifumarate” (priority 2002, dated 2005)

Experiments:
[1] = Hygroscopicity (moisture absorption) in DVS; assay type: physicochemical; conditions: relative humidity (RH) of 90%
[2] = mixed with three volumes of lactose monohydrate, 40° C. and 75% RH, one week
[3] = Stability of the polymorphic form (vacuum at 50° C., crushing); assay type: physicochemical

Row | SMILES | moisture absorption value ([1]; listed as Desloratadine hemifumarate polymorphic form 2) [%] | Appearance after stress storage (color, crystallinity, texture) [2] | moisture absorption value [1] [%] | moisture absorption value ([1]; listed as desloratadine polymorphic form 1) [%] | Change of polymorphic form under vacuum at 50° C. [3]
1 | Clc1ccc2c(c1)CCc1cccnc1C2=C1CCNCC1.Clc1ccc2c(c1)CCc1cccnc1C2=C1CCNCC1.O=C(O)C=CC(=O)O [Desloratadine hemifumarate (polymorph 2), Descarbonylethoxyloratadine Hemifumarate] | 0.3 | retained its crystallinity, color and the texture | – | – | –
2 | Clc1ccc2c(c1)CCc1cccnc1C2=C1CCNCC1 [Standard desloratadine, 8-chloro-6,11-dihydro-11-(4-piperidylidene)-5H-benzo[5,6]-cyclohepta[1,2-b]pyridine, reference compound] | – | showed discoloration | 0.3 | – | –
3 | Clc1ccc2c(c1)CCc1cccnc1C2=C1CCNCC1.Clc1ccc2c(c1)CCc1cccnc1C2=C1CCNCC1.O=C(O)C=CC(=O)O [Desloratadine hemifumarate (polymorph 1), Descarbonylethoxyloratadine Hemifumarate] | – | retained its crystallinity, color and the texture | – | 0.9 | can be changed to polymorphic form 2
